Values after ≈ are worked out from the molar mass of the structure shown.
How the values were obtained:
Assay type in all cases: functional
SW-620 = assay: Growth inhibition of Homo sapiens (human) SW620 cells at 10 uM after 48 hr by SRB assay; conditions: SW-620, 48 h, read-out: GI
Candida albicans = assay: Antimicrobial activity against Candida albicans DSM 70014 after 48 hr by two-fold serial broth dilution method; conditions: DSM 70014, 48 h
SF-295 = assay: Anticancer activity against Homo sapiens (human) SF295 cells after 48 hr by SRB assay; conditions: SF-295, 48 h
MOLT-4 [1] = assay: Growth inhibition of Homo sapiens (human) MOLT4 cells at 10 uM after 48 hr by SRB assay; conditions: MOLT-4, 48 h, read-out: GI
SF-539 = assay: Anticancer activity against Homo sapiens (human) SF539 cells after 48 hr by SRB assay; conditions: SF-539, 48 h
MDA-MB-231 = assay: Anticancer activity against Homo sapiens (human) MDA-MB-231/ATCC cells after 48 hr by SRB assay; conditions: MDA-MB-231, 48 h
OVCAR-5 = assay: Anticancer activity against Homo sapiens (human) OVCAR5 cells after 48 hr by SRB assay; conditions: OVCAR-5, 48 h
CAKI-1 = assay: Anticancer activity against Homo sapiens (human) CAKI-1 cells after 48 hr by SRB assay; conditions: CAKI-1, 48 h
HCT-15 [2] = assay: Anticancer activity against Homo sapiens (human) HCT15 cells after 48 hr by SRB assay; conditions: HCT-15, 48 h
Malme-3M [3] = assay: Anticancer activity against Homo sapiens (human) MALME-3M cells after 48 hr by SRB assay
COLO 205 = assay: Anticancer activity against Homo sapiens (human) COLO205 cells after 48 hr by SRB assay; conditions: COLO 205, 48 h
SNB-75 = assay: Anticancer activity against Homo sapiens (human) SNB75 cells after 48 hr by SRB assay; conditions: SNB-75, 48 h
LOX IMVI = assay: Anticancer activity against Homo sapiens (human) LOXIMVI cells after 48 hr by SRB assay
A549 = assay: Growth inhibition of Homo sapiens (human) A549/ATCC cells at 10 uM after 48 hr by SRB assay; conditions: A549, 48 h, read-out: GI
HT-29 = assay: Growth inhibition of Homo sapiens (human) HT-29 cells at 10 uM after 48 hr by SRB assay; conditions: HT-29, 48 h, read-out: GI
DU-145 = assay: Anticancer activity against Homo sapiens (human) DU145 cells after 48 hr by SRB assay; conditions: DU-145, 48 h
UACC-257 = assay: Anticancer activity against Homo sapiens (human) UACC257 cells after 48 hr by SRB assay; conditions: UACC-257, 48 h
BT-549 = assay: Growth inhibition of Homo sapiens (human) BT549 cells at 10 uM after 48 hr by SRB assay; conditions: BT-549, 48 h, read-out: GI
EKVX = assay: Anticancer activity against Homo sapiens (human) EKVX cells after 48 hr by SRB assay
A498 = assay: Anticancer activity against Homo sapiens (human) A498 cells after 48 hr by SRB assay; conditions: A498, 48 h
Bacillus subtilis = assay: Antimicrobial activity against Bacillus subtilis ATCC 6633 after 48 hr by two-fold serial broth dilution method; conditions: ATCC 6633, 48 h
SNB-19 = assay: Growth inhibition of Homo sapiens (human) SNB19 cells at 10 uM after 48 hr by SRB assay; conditions: SNB-19, 48 h, read-out: GI
Pseudomonas aeruginosa = assay: Antimicrobial activity against Pseudomonas aeruginosa ATCC 10145 after 48 hr by two-fold serial broth dilution method; conditions: ATCC 10145, 48 h
KM12 = assay: Growth inhibition of Homo sapiens (human) KM12 cells at 10 uM after 48 hr by SRB assay; conditions: KM12, 48 h, read-out: GI
SN12C = assay: Growth inhibition of Homo sapiens (human) SN12C cells at 10 uM after 48 hr by SRB assay; conditions: read-out: GI
Malme-3M [4] = assay: Growth inhibition of Homo sapiens (human) MALME-3M cells at 10 uM after 48 hr by SRB assay; conditions: read-out: GI
RXF 393 [5] = assay: Growth inhibition of Homo sapiens (human) RXF393 cells at 10 uM after 48 hr by SRB assay; conditions: RXF 393, 48 h, read-out: GI
T47D = assay: Growth inhibition of Homo sapiens (human) T47D cells at 10 uM after 48 hr by SRB assay; conditions: read-out: GI
OVCAR-8 = assay: Anticancer activity against Homo sapiens (human) OVCAR8 cells after 48 hr by SRB assay; conditions: OVCAR-8, 48 h
HOP-92 = assay: Anticancer activity against Homo sapiens (human) HOP92 cells after 48 hr by SRB assay; conditions: HOP-92, 48 h
MOLT-4 [6] = assay: Anticancer activity against Homo sapiens (human) MOLT4 cells after 48 hr by SRB assay; conditions: MOLT-4, 48 h
RXF 393 [7] = assay: Anticancer activity against Homo sapiens (human) RXF393 cells after 48 hr by SRB assay; conditions: RXF 393, 48 h
HCT-15 [8] = assay: Growth inhibition of Homo sapiens (human) HCT15 cells at 10 uM after 48 hr by SRB assay; conditions: HCT-15, 48 h, read-out: GI
786-0 = assay: Growth inhibition of Homo sapiens (human) 786-0 cells at 10 uM after 48 hr by SRB assay; conditions: 786-0, 48 h, read-out: GI
[9] = read-out: LC50 (the source's name)

SMILES: COc1ccc(OC)c(/C=C/C(=O)N/N=C/c2ccc(Cl)cc2)c1
- inhibition of growth at 10 µM (SW-620): 80.1%
- MFC (Candida albicans): 50 µg/mL (≈ 145 µM)
- MIC (Candida albicans): 25 µg/mL (≈ 72.5 µM)
- GI50 (SF-295): 129 nM
- TGI (SF-295): 6.44 µM
- CC50 (SF-295; [9]): > 100 µM
- inhibition of growth at 10 µM (MOLT-4 [1]): 73.7%
- GI50 (SF-539): 258 nM
- TGI (SF-539): 3.16 µM
- CC50 (SF-539; [9]): > 100 µM
- GI50 (MDA-MB-231): 1370 nM
- TGI (MDA-MB-231): > 100 µM
- CC50 (MDA-MB-231; [9]): > 100 µM
- GI50 (OVCAR-5): 10.9 µM
- TGI (OVCAR-5): > 100 µM
- CC50 (OVCAR-5; [9]): > 100 µM
- GI50 (CAKI-1): 87.9 nM
- TGI (CAKI-1): > 100 µM
- CC50 (CAKI-1; [9]): > 100 µM
- GI50 (HCT-15 [2]): 83.5 nM
- TGI (HCT-15 [2]): > 100 µM
- CC50 (HCT-15 [2]; [9]): > 100 µM
- TGI (Malme-3M [3]): > 100 µM
- CC50 (Malme-3M [3]; [9]): > 100 µM
- GI50 (COLO 205): 153 nM
- TGI (COLO 205): 595 nM
- CC50 (COLO 205; [9]): 63.9 µM
- GI50 (SNB-75): 98 nM
- TGI (SNB-75): 1170 nM
- CC50 (SNB-75; [9]): > 100 µM
- GI50 (LOX IMVI): 254 nM
- TGI (LOX IMVI): > 100 µM
- CC50 (LOX IMVI; [9]): > 100 µM
- inhibition of growth at 10 µM (A549): 72.2%
- inhibition of growth at 10 µM (HT-29): 93.5%
- GI50 (DU-145): 217 nM
- TGI (DU-145): 8.4 µM
- CC50 (DU-145; [9]): > 100 µM
- GI50 (UACC-257): 36.5 µM
- LC50 (50% lethal concentration) (UACC-257): > 100 µM
- TGI (UACC-257): > 100 µM
- inhibition of growth at 10 µM (BT-549): 36.5%
- GI50 (EKVX): 816 nM
- TGI (EKVX): > 100 µM
- CC50 (EKVX; [9]): > 100 µM
- GI50 (A498): 182 nM
- LC50 (A498): > 100 µM
- TGI (A498): 27.5 µM
- MBC (Bacillus subtilis): 50 µg/mL (≈ 145 µM)
- MIC (Bacillus subtilis): 50 µg/mL (≈ 145 µM)
- inhibition of growth at 10 µM (SNB-19): 77.4%
- MBC (Pseudomonas aeruginosa): 50 µg/mL (≈ 145 µM)
- MIC (Pseudomonas aeruginosa): 50 µg/mL (≈ 145 µM)
- inhibition of growth at 10 µM (KM12): 82%
- inhibition of growth at 10 µM (SN12C): 53.8%
- inhibition of growth at 10 µM (Malme-3M [4]): 45.9%
- inhibition of growth at 10 µM (RXF 393 [5]): 120%
- inhibition of growth at 10 µM (T47D): 70.5%
- GI50 (OVCAR-8): 350 nM
- LC50 (OVCAR-8): > 100 µM
- TGI (OVCAR-8): > 100 µM
- GI50 (HOP-92): 4.43 µM
- TGI (HOP-92): 58.9 µM
- CC50 (HOP-92; [9]): > 100 µM
- GI50 (MOLT-4 [6]): 523 nM
- TGI (MOLT-4 [6]): > 100 µM
- CC50 (MOLT-4 [6]; [9]): > 100 µM
- GI50 (RXF 393 [7]): 46.9 nM
- LC50 (RXF 393 [7]): > 100 µM
- TGI (RXF 393 [7]): 298 nM
- inhibition of growth at 10 µM (HCT-15 [8]): 70.6%
- inhibition of growth at 10 µM (786-0): 83.3%
